Results: US4835156A, “Vasodilatory dihydrodibenzocycloheptyliden-ethyl piperazine derivatives and process for the preparation of these compounds” (Sociedad Espanola De Especialidades Terepeuticas, S.A., priority 1983, dated 1989)

How the values were obtained:
[1] = system: Rat hind-quarters; assay: Vasodilatory activity, isolated rat hind-quarters (antagonism of vasoconstriction by hyperkalaemic Tyrode solution); conditions: crosses relative to standard drugs cinnarizine and flunarizine;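 further: four crosses equal an effect comparable to the standard drug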
Excerpt: (§1) The significance of the symbols is as follows:
In order to test the vasodilatory activity, the first trial employs the technique of the isolated rat hind-quarters (Table 2), which involves antagonizing the vasoconstrictive effect of perfusion of hyperkalaemic Tyrode solution, according to the method of F. N. Fastier and F. H. Smirk (J. Pharm. Exp. Therap. 89, […] (1947)), and then calculating for the products which show the greatest activity, the ED30, that is the dose which produces a 30% vasodilatory activity with respect to the basic vasoconstriction.

[2] = Toxicity, indicative LD50, intraperitoneal; conditions: mouse, in vivo, ip, Swiss mice, 7 days post-administration
Experimental: Table 4 sets forth the results of the indicative LD50 for the most representative of the compounds according to the present invention.
The compounds are administered by the intraperitoneal route to Swiss mice, after which the toxic effects are observed, and the mortality rate and the LD50 7 days post-administration are calculated.

[3] = system: Rabbit cerebral territory; assay: Vasodilation in perfused rabbit cerebral territory (variation in perfusion pressure); format: in vivo; conditions: for Vasodilatory Index: % vasodilation multiplied by duration of action; for Vasodilatory Activity (Rabbit cerebral territory) Evaluation: crosses relative to standard cinnarizine;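 on Vasodilatory Activity (Rabbit cerebral territory) Evaluation: four crosses equal an effect comparable to the standard drug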
Experimental: as §1
In a further trial, the vasodilatory activity is evaluated by the technique of vasodilation in perfused rabbit cerebral territory as described by P. Vaupel and H. Hutten (Arzneim. Forsch./Drug Res. 30(I), 598-602 (1980)), calculating the variation in perfusion pressure after treatment (Table 3).
Table 3 employs the same conventional signs based on crosses, with the same relative significance as in Table 2.

For `O=C(CN1CCN(CC=C2c3ccccc3CCc3ccccc32)CC1)N1CCCC1` [WAS-4224], the “Vasodilatory Activity (Rat hind-quarters) Evaluation” value [1] was 0, the LD50 at 168 h [2] was 385 mg/kg and the “Vasodilatory Index” value [3] was 342.0 mm^2. The “Vasodilatory Activity (Rabbit cerebral territory) Evaluation” value [3] was “+++”.
For `O=C(CN1CCN(CC=C2c3ccccc3CCc3ccccc32)CC1)NC(=O)NCN1CCOCC1` [WAS-4601], the “Vasodilatory Activity (Rat hind-quarters) Evaluation” value [1] was “++++”, the LD50 at 168 h [2] was 125 mg/kg and the “Vasodilatory Index” value [3] was 180.8 mm^2. For the same compound, the “Vasodilatory Activity (Rabbit cerebral territory) Evaluation” value [3] was “+”.
With `C(CN1CCN(Cc2cccs2)CC1)=C1c2ccccc2CCc2ccccc21` [WAS-4226, N-2-(10,11-dihydrodibenzo-(a,d)-cyclohept-5-yliden)-ethyl-N'-(2-thenyl)-piperazine] the “Vasodilatory Activity (Rat hind-quarters) Evaluation” value [1] was 0, the LD50 at 168 h [2] was 385 mg/kg and the “Vasodilatory Index” value [3] was 74.0 mm^2. The “Vasodilatory Activity (Rabbit cerebral territory) Evaluation” value [3] was 0.
In the case of `O=C(CN1CCN(CC=C2c3ccccc3CCc3ccccc32)CC1)N1CCOCC1` [WAS-4222], the “Vasodilatory Activity (Rat hind-quarters) Evaluation” value [1] is reported as “+”, the LD50 at 168 h [2] is reported as 185 mg/kg and the “Vasodilatory Index” value [3] is reported as 454.6 mm^2. For the same compound, the “Vasodilatory Activity (Rabbit cerebral territory) Evaluation” value [3] was “++++”.
With `C(CN1CCN(Cc2ccccc2)CC1)=C1c2ccccc2CCc2ccccc21` [WAS-4206, N-benzyl-N'-2-(10,11-dihydrodibenzo-(a,d)-cyclohept-5-yliden)-ethyl piperazine] the “Vasodilatory Activity (Rat hind-quarters) Evaluation” value [1] was “++++”, the LD50 at 168 h [2] was 880 mg/kg and the “Vasodilatory Index” value [3] was 285.3 mm^2. The “Vasodilatory Activity (Rabbit cerebral territory) Evaluation” value [3] was “++”.
For `C(=Cc1ccccc1)CN1CCN(CC=C2c3ccccc3CCc3ccccc32)CC1` [WAS-4207], the “Vasodilatory Activity (Rat hind-quarters) Evaluation” value [1] was “++++”, the LD50 at 168 h [2] was 925 mg/kg and the “Vasodilatory Index” value [3] was 16.2 mm^2. For the same compound, the “Vasodilatory Activity (Rabbit cerebral territory) Evaluation” value [3] was 0.
With `Fc1ccc(C(c2ccc(F)cc2)N2CCN(C/C=C/c3ccccc3)CC2)cc1` [Flunarizine, reference compound] the “Vasodilatory Activity (Rat hind-quarters) Evaluation” value [1] was “++++”.
With `COC(=O)C=CCN1CCN(CC=C2c3ccccc3CCc3ccccc32)CC1` [WAS-4237] the “Vasodilatory Activity (Rat hind-quarters) Evaluation” value [1] was “++++”, the LD50 at 168 h [2] was 3000 mg/kg and the “Vasodilatory Index” value [3] was 19.6 mm^2. The “Vasodilatory Activity (Rabbit cerebral territory) Evaluation” value [3] was 0.
For `O=C(CN1CCN(CC=C2c3ccccc3CCc3ccccc32)CC1)c1ccccc1` [WAS-4602], the “Vasodilatory Activity (Rat hind-quarters) Evaluation” value [1] was 0, the LD50 at 168 h [2] was 200 mg/kg and the “Vasodilatory Index” value [3] was 378.3 mm^2. For the same compound, the “Vasodilatory Activity (Rabbit cerebral territory) Evaluation” value [3] was “+++”.
For `C(CN1CCN(Cc2ccccn2)CC1)=C1c2ccccc2CCc2ccccc21` [WAS-4232], the “Vasodilatory Activity (Rat hind-quarters) Evaluation” value [1] was “++”, the LD50 at 168 h [2] was 115 mg/kg and the “Vasodilatory Index” value [3] was 46.8 mm^2. The “Vasodilatory Activity (Rabbit cerebral territory) Evaluation” value [3] was 0.
With `O=C(C=CCN1CCN(CC=C2c3ccccc3CCc3ccccc32)CC1)c1ccccc1` [WAS-4605] the “Vasodilatory Activity (Rat hind-quarters) Evaluation” value [1] was “++++”, the LD50 at 168 h [2] was 115 mg/kg and the “Vasodilatory Index” value [3] was 420.9 mm^2. The “Vasodilatory Activity (Rabbit cerebral territory) Evaluation” value [3] was “++++”.
For `OCCN1CCN(CC=C2c3ccccc3CCc3ccccc32)CC1` [WAS-4229], the “Vasodilatory Activity (Rat hind-quarters) Evaluation” value [1] was 0, the LD50 at 168 h [2] was 115 mg/kg and the “Vasodilatory Index” value [3] was 55.6 mm^2. The “Vasodilatory Activity (Rabbit cerebral territory) Evaluation” value [3] was 0.
With `C(CN1CCN(Cc2ccncc2)CC1)=C1c2ccccc2CCc2ccccc21` [WAS-4220] the “Vasodilatory Activity (Rat hind-quarters) Evaluation” value [1] was 0, the LD50 at 168 h [2] was 185 mg/kg and the “Vasodilatory Index” value [3] was 1159.2 mm^2. For the same compound, the “Vasodilatory Activity (Rabbit cerebral territory) Evaluation” value [3] was “++++”.
For `O=C(CN1CCN(CC=C2c3ccccc3CCc3ccccc32)CC1)NC12CC3CC(CC(C3)C1)C2` [WAS-4239], the “Vasodilatory Activity (Rat hind-quarters) Evaluation” value [1] was “++”, the LD50 at 168 h [2] was 340 mg/kg and the “Vasodilatory Index” value [3] was 0 mm^2. The “Vasodilatory Activity (Rabbit cerebral territory) Evaluation” value [3] was 0.
For `C=CCN1CCN(CC=C2c3ccccc3CCc3ccccc32)CC1` [WAS-4225], the “Vasodilatory Activity (Rat hind-quarters) Evaluation” value [1] was “++++”, the LD50 at 168 h [2] was 175 mg/kg and the “Vasodilatory Index” value [3] was 0 mm^2. The “Vasodilatory Activity (Rabbit cerebral territory) Evaluation” value [3] was 0.
In the case of `CCOC(=O)CN1CCN(CC=C2c3ccccc3CCc3ccccc32)CC1` [WAS-4231], the “Vasodilatory Activity (Rat hind-quarters) Evaluation” value [1] is reported as “++”, the LD50 at 168 h [2] is reported as 175 mg/kg and the “Vasodilatory Index” value [3] is reported as 0 mm^2. The “Vasodilatory Activity (Rabbit cerebral territory) Evaluation” value [3] was 0.
For `C(CN1CCN(Cc2cccnc2)CC1)=C1c2ccccc2CCc2ccccc21` [WAS-4227], the “Vasodilatory Activity (Rat hind-quarters) Evaluation” value [1] was “+”, the LD50 at 168 h [2] was 175 mg/kg and the “Vasodilatory Index” value [3] was 253.7 mm^2. The “Vasodilatory Activity (Rabbit cerebral territory) Evaluation” value [3] was “++”.
For `O=C(O)CN1CCN(CC=C2c3ccccc3CCc3ccccc32)CC1` [WAS-4233], the “Vasodilatory Activity (Rat hind-quarters) Evaluation” value [1] was 0, the LD50 at 168 h [2] was 900 mg/kg and the “Vasodilatory Index” value [3] was 0 mm^2. The “Vasodilatory Activity (Rabbit cerebral territory) Evaluation” value [3] was 0.
For `COC(=O)c1cc(CN2CCN(CC=C3c4ccccc4CCc4ccccc43)CC2)ccc1O` [WAS-4604], the “Vasodilatory Activity (Rat hind-quarters) Evaluation” value [1] was “+”, the LD50 at 168 h [2] was 900 mg/kg and the “Vasodilatory Index” value [3] was 20.0 mm^2. The “Vasodilatory Activity (Rabbit cerebral territory) Evaluation” value [3] was 0.
For `C(CN1CCN(Cc2ccc3c(c2)OCO3)CC1)=C1c2ccccc2CCc2ccccc21` [WAS-4234], the “Vasodilatory Activity (Rat hind-quarters) Evaluation” value [1] was 0, the LD50 at 168 h [2] was 600 mg/kg and the “Vasodilatory Index” value [3] was 0 mm^2. The “Vasodilatory Activity (Rabbit cerebral territory) Evaluation” value [3] was 0.
For `O=C(CN1CCN(CC=C2c3ccccc3CCc3ccccc32)CC1)N1CCCCC1` [WAS-4223], the “Vasodilatory Activity (Rat hind-quarters) Evaluation” value [1] was 0, the LD50 at 168 h [2] was 185 mg/kg and the “Vasodilatory Index” value [3] was 1133.6 mm^2. The “Vasodilatory Activity (Rabbit cerebral territory) Evaluation” value [3] was “++++”.
In the case of `C(CN1CCN(Cc2ccco2)CC1)=C1c2ccccc2CCc2ccccc21` [WAS-4221], the “Vasodilatory Activity (Rat hind-quarters) Evaluation” value [1] is reported as 0, the LD50 at 168 h [2] is reported as 185 mg/kg and the “Vasodilatory Index” value [3] is reported as 321.4 mm^2. The “Vasodilatory Activity (Rabbit cerebral territory) Evaluation” value [3] was “+++”.
